Laboratory results reported in BigSolDB 2.1.

Cc1c(-c2ccccc2)oc2c(C(=O)OCCN3CCCCC3)cccc2c1=O.Cl
solubility (mole fraction)
Settings	278.15 K	283.15 K	288.15 K	293.15 K	298.15 K	303.15 K	308.15 K	313.15 K	318.15 K	323.15 K
in 2-ethoxyethanol	0.000121	0.000162	0.000173	0.000211	0.000252	0.000309	0.000362	0.00044	0.000533	0.000636
in 2-methoxyethanol	0.000431	0.000521	0.000578	0.000675	0.000788	0.000931	0.00107	0.00129	0.00152	0.00182
in 2-propoxyethanol	0.000193	0.000212	0.000255	0.000303	0.000355	0.000413	0.000509	0.000593	0.000704	0.000881
in DMSO	–	–	–	0.000626	0.000775	0.000911	0.00107	0.00129	0.00152	0.0018
in NMP	0.000254	0.000334	0.00039	0.00047	0.000548	0.000646	0.000768	0.000919	0.00109	0.0013
in acetonitrile	2.88e-05	3.71e-05	4.2e-05	4.95e-05	6.13e-05	7.58e-05	8.98e-05	0.000112	0.000141	0.000174
in ethanol	8.81e-05	9.89e-05	0.000117	0.000143	0.000182	0.00022	0.000284	0.000364	0.000452	0.000565
in ethylene glycol	0.000868	0.00115	0.00136	0.00161	0.002	0.00236	0.00284	0.00347	0.00415	0.005
in methanol	0.000529	0.000637	0.000808	0.000961	0.00116	0.0014	0.00169	0.00207	0.00255	0.00317
in n-butanol	3.52e-05	4.51e-05	6.1e-05	9.1e-05	0.000124	0.000171	0.000223	0.000303	0.000374	0.000468
in n-propanol	2.87e-05	3.76e-05	4.58e-05	6.56e-05	0.000107	0.000142	0.000188	0.000252	0.000331	0.000425
in water	0.000219	0.00026	0.000301	0.000361	0.000442	0.000526	0.000629	0.000757	0.00092	0.00114
